The values below come from paper PMC3192013 (ChemMedChem, 2011).

Assay [1] concerns Stat3 (Stat3–Stat3:DNA complex, EMSA). Kind of assay: EMSA, Stat3-Stat3:DNA disruption. The settings on record: nuclear extract. In kind it is biochemical. (In EMSA bound probe runs differently from free probe, usually more slowly.)
Assay [2] has the same test system. Kind of assay: in vitro Stat3 inhibition. In kind it is biochemical. The conditions noted are these: assay not given.

For `Cc1ccc(S(=O)(=O)N(C)CC(=O)N(Cc2ccc(C#N)cc2)c2ccc(C(=O)O)c(O)c2)cc1` [27c, SF-1-073], in assay [1], the IC50 came to 260 ± 47 µM.
`Cc1ccc(S(=O)(=O)N(C)CC(=O)N(CC2CCCCC2)c2ccc(C(=O)O)c(O)c2)cc1` [27e, 27 e] showed an IC50 in assay [1] of over 300 µM.
In turn, `Cc1ccc(S(=O)(=O)N(C)CC(=O)N(Cc2ccc(C(C)(C)C)cc2)c2ccc(C(=O)O)c(O)c2)cc1` [27f, SF-1-068] registered an IC50 in assay [1] of 194 ± 47 µM.
Still for that read-out and setting: in the case of `Cc1ccc(S(=O)(=O)N(C)CC(=O)N(CC2CCN(C(=O)OC(C)(C)C)CC2)c2ccc(C(=O)O)c(O)c2)cc1` [27jb, 27 jb] it was over 300 µM; in that of `Cc1ccc(S(=O)(=O)N(C)CC(=O)N(CC2CCN(c3ccc(C#N)cc3)CC2)c2ccc(C(=O)O)c(O)c2)cc1` [27jc, 27 jc], over 300 µM; in that of `Cc1ccc(S(=O)(=O)N(C)CC(=O)N(CC2CCN(c3ncccn3)CC2)c2ccc(C(=O)O)c(O)c2)cc1` [27jd, 27 jd], over 300 µM.
Compound `Cc1ccc(S(=O)(=O)N(C)CC(=O)N(Cc2ccc(C3CCN(C(=O)C(F)(F)F)CC3)cc2)c2ccc(C(=O)O)c(O)c2)cc1` [27ka, 27 ka] registered an IC50 in assay [1] of over 300 µM.
Regarding `Cc1ccc(S(=O)(=O)N(C)CC(=O)N(Cc2ccc(C3CCNCC3)cc2)c2ccc(C(=O)O)c(O)c2)cc1` [27kb, 27 kb], the IC50 in assay [1] was over 300 µM.
`Cc1ccc(S(=O)(=O)N(C)CC(=O)N(Cc2ccc(C3CCN(C(=O)OC(C)(C)C)CC3)cc2)c2ccc(C(=O)O)c(O)c2)cc1` [27kc, 27 kc] came in with an IC50 in assay [1] of over 300 µM.
On the same count and under the same terms, next, `Cc1ccc(S(=O)(=O)N(C)CC(=O)N(Cc2ccc(C3CCN(c4ccc(C#N)cc4)CC3)cc2)c2ccc(C(=O)O)c(O)c2)cc1` [27kd, 27 kd]: 45 ± 12 µM; `Cc1ccc(S(=O)(=O)N(C)CC(=O)N(Cc2ccc(C3CCN(S(=O)(=O)c4ccc(C#N)cc4)CC3)cc2)c2ccc(C(=O)O)c(O)c2)cc1` [27kg, 27 kg]: 50 ± 15 µM.
For `COC(=O)c1cccc(-c2ccc(CN(C(=O)CN(C)S(=O)(=O)c3ccc(C)cc3)c3ccc(C(=O)O)c(O)c3)cc2)c1` [27la, 27 la], in assay [1] (read-out: [drawing 30] / IC50), the IC50 turned out to be 191 ± 8 µM.
With `Cc1ccc(S(=O)(=O)N(C)CC(=O)N(Cc2ccc(-c3cccc(C(N)=O)c3)cc2)c2ccc(C(=O)O)c(O)c2)cc1` [27lc, 27 lc], in assay [1] (read-out: [drawing 30] / IC50), the IC50 is over 300 µM.
With `COC(=O)c1ccc(-c2ccc(CN(C(=O)CN(C)S(=O)(=O)c3ccc(C)cc3)c3ccc(C(=O)O)c(O)c3)cc2)cc1` [27ld, 27 ld], the IC50 in assay [1] (read-out: [drawing 30] / IC50, label printed 27 gld) stood at 141 ± 10 µM.
On to `Cc1ccc(S(=O)(=O)N(C)CC(=O)N(Cc2ccc(-c3ccc(C#N)cc3)cc2)c2ccc(C(=O)O)c(O)c2)cc1` [27lf, 27 lf], for which, in assay [1] (read-out: [drawing 30] / IC50), the IC50 turned out to be 274 ± 10 µM.
The same measure, in the same setting: next, `Cc1ccc(S(=O)(=O)N(C)CC(=O)N(Cc2ccc(-c3ccc(C(N)=O)cc3)cc2)c2ccc(C(=O)O)c(O)c2)cc1` [27lg, 27 lg]: over 300 µM.
`Cc1ccc(S(=O)(=O)N(C)CC(=O)N(Cc2ccc(-c3ccc(-c4ccc(C(N)=O)cc4)cc3)cc2)c2ccc(C(=O)O)c(O)c2)cc1` [27nh, 27 nh]: the IC50 in assay [1] (read-out: [drawing 31] / IC50) was 43 ± 1.3 µM.
Take `Cc1ccc(S(=O)(=O)NCC(=O)Nc2ccc(C(=O)O)c(O)c2)cc1` [compound 9, SF-1-082]: the IC50 in assay [1] is over 300 µM.
Regarding `Cc1ccc(S(=O)(=O)N(C)CC(=O)Nc2ccc(C(=O)O)c(O)c2)cc1` [compound 10, 10], the IC50 in assay [1] is over 300 µM.
Same read-out and setting: in the case of `Cc1ccc(S(=O)(=O)N(CC(=O)Nc2ccc(C(=O)O)c(O)c2)C(=O)OC(C)(C)C)cc1` [compound 11, 11] it was over 300 µM.
`Cc1ccc(S(=O)(=O)OCC(=O)N(Cc2ccccc2)c2ccc(C(=O)O)c(O)c2)cc1` [compound 12, SF-1-120] came in with an IC50 in assay [1] of over 300 µM.
Still for that read-out and setting: next, `Cc1ccc(S(=O)(=O)NCC(=O)N(Cc2ccccc2)c2ccc(C(=O)O)c(O)c2)cc1` [compound 13, 13]: over 300 µM.
Take `Cc1ccc(S(=O)(=O)N(C)CC(=O)N(Cc2ccccc2)c2ccc(C(=O)O)c(O)c2)cc1` [compound 14, SF-1-062]: the IC50 in assay [1] (Table 2 prints 295 ± 35) was 292 ± 35 µM.
In turn, `Cc1ccc(S(=O)(=O)N(CC(=O)N(Cc2ccccc2)c2ccc(C(=O)O)c(O)c2)C(=O)OC(C)(C)C)cc1` [compound 15, 15] came in with an IC50 in assay [1] of over 300 µM.
The same measure, in the same setting: next, `Cc1ccc(S(=O)(=O)NCC(=O)N(Cc2ccc(C3CCCCC3)cc2)c2ccc(C(=O)O)c(O)c2)cc1` [compound 41, SF-1-083]: 95 ± 9 µM.
For the compound `O=C(O)c1ccc(N(Cc2ccc(C3CCCCC3)cc2)C(=O)CO)cc1O` [compound 47, primary alcohol 47], in assay [2], the IC50 is over 300 µM.
